Experimental data as given in publication PMC9893751, “Synthesis of Benzimidazole-1,2,4-triazole Derivatives as Potential Antifungal Agents Targeting 14α-Demethylase” (ACS Omega, 2023).
Converted amounts (≈) assume the structure as drawn.

What was measured:
C. glabrata (ATCC 9) = test: In vitro antifungal activity (CLSI) against C. glabrata; assay type: cell-based; details: for Antifungal activity (MIC), C. glabrata / MIC: C. glabrata ATCC 9; for Effectiveness against C. glabrata compared with fluconazole / Effectiveness against C. glabrata compared with voriconazole: from MIC values; for MIC: Nakaseomyces glabratus, ATCC9
Description: (§1) Voriconazole and fluconazole (against candida strains) were used as standard reference drugs.

L929 cell lines = test: Cytotoxicity MTT assay on L929 fibroblasts; assay type: cell-based
Protocol: (§2) The cytotoxic effect of compounds 6a–6l was evaluated against L929 cell lines. For preliminary screening, the cytotoxic bioactivity of synthesized compounds was evaluated in vitro against L929 cell lines with the MTT assay. […] The effect of the compounds 6a–6l on the viability of L929 cell lines was analyzed by MTT assay as described in the previous work.[45]

[1] = tested on: C. parapsilopsis (ATCC 22019); test: In vitro antifungal activity (CLSI) against C. parapsilosis; assay type: cell-based; details: for MIC: Lodderomyces parapsilosis, ATCC22019
Description: as §1

C. krusei (ATCC 6258) = test: In vitro antifungal activity (CLSI) against C. krusei; assay type: cell-based; details: for MIC: Pichia kudriavzevii, ATCC6258
Description: as §1

C. albicans (ATCC 24433) = test: In vitro antifungal activity (CLSI) against C. albicans; assay type: cell-based; details: for MIC: Candida albicans, ATCC24433
Description: as §1

[2] = Cytotoxicity MTT assay on L929 fibroblasts; assay type: cell-based; details: mouse, L929 fibroblast cells; 100 μM, 48 h, L929 cell lines, MTT
Protocol: as §2

| Compound | Antifungal activity (MIC), C. glabrata (C. glabrata (ATCC 9)) [µg/mL] | Effectiveness against C. glabrata compared with fluconazole (C. glabrata (ATCC 9)) | Effectiveness against C. glabrata compared with voriconazole (C. glabrata (ATCC 9)) | cell viability (%) (L929 cell lines; 100 µM) | Antifungal activity (MIC), C. parapsilosis [1] [µg/mL] | Antifungal activity (MIC), C. krusei (C. krusei (ATCC 6258)) [µg/mL] | Antifungal activity (MIC), C. albicans (C. albicans (ATCC 24433)) [µg/mL] | MIC (C. glabrata (ATCC 9)) [µg/mL] | viability at 48 h, 100 µM [2] [%] | MIC [1] [µg/mL] | MIC (C. krusei (ATCC 6258)) [µg/mL] | MIC (C. albicans (ATCC 24433)) [µg/mL] | melting point [°C] | cell viability (%) (L929 cell lines; 100 μM, 48 h, L929 cell lines, MTT) | IC50 (L929 cell lines; Mus musculus, L929 fibroblasts, MTT, maximum dose 100 μM, 48 h, read-out: IC50 against L929) [µM] |
| --- | --- | --- | --- | --- | --- | --- | --- | --- | --- | --- | --- | --- | --- | --- | --- |
| 2-(4-(5-((2-(4-Nitrophenyl)-2-oxoethyl)thio)-4-phenyl-4H-1,2,4-triazol-3-yl)phenyl)-1H-benz[d]imidazole-5(6)-carbonitrile [6a] | 1.95 | two times more effective | same activity | 34 ± 6.19 | 62.5 | 125 | 31.25 | – | – | – | – | – | – | – | – |
| COc1ccc(C(=O)CSc2nnc(-c3ccc(-c4nc5cc(C#N)ccc5[nH]4)cc3)n2-c2ccccc2)cc1 [6b, 2-(4-(5-((2-(4-Methoxyphenyl)-2-oxoethyl)thio)-4-phenyl-4H-1,2,4-triazol-3-yl)phenyl)-1H-benz[d]imidazole-5(6)-carbonitrile] | – | four times more effective | two times more effective | – | – | – | – | 0.97 (≈ 1.79 µM) | 32.1 ± 1.38 | 31.2 (≈ 57.6 µM) | 125 (≈ 230 µM) | 31.2 (≈ 57.6 µM) | 177.6 | – | – |
| N#Cc1ccc(C(=O)CSc2nnc(-c3ccc(-c4nc5cc(C#N)ccc5[nH]4)cc3)n2-c2ccccc2)cc1 [6c, 2-(4-(5-((2-(4-Cyanophenyl)-2-oxoethyl)thio)-4-phenyl-4H-1,2,4-triazol-3-yl)phenyl)-1H-benz[d]imidazole-5(6)-carbonitrile] | 1.95 | two times more effective | same activity | 30.9 ± 1.42 | 31.25 | 125 | 31.25 | – | – | – | – | – | – | – | – |
| N#Cc1ccc2[nH]c(-c3ccc(-c4nnc(SCC(=O)c5ccc(F)cc5)n4-c4ccccc4)cc3)nc2c1 [6d, 2-(4-(5-((2-(4-Fluorophenyl)-2-oxoethyl)thio)-4-phenyl-4H-1,2,4-triazol-3-yl)phenyl)-1H-benz[d]imidazole-5(6)-carbonitrile] | 1.95 | two times more effective | same activity | 34.2 ± 5.13 | 125 | 125 | 62.5 | – | – | – | – | – | – | – | – |
| N#Cc1ccc2[nH]c(-c3ccc(-c4nnc(SCC(=O)c5ccc(-c6ccccc6)cc5)n4-c4ccccc4)cc3)nc2c1 [6e, 2-(4-(5-((2-([1,1′-Biphenyl]-4-yl)2-oxoethyl)thio)-4-phenyl-4H-1,2,4-triazol-3-yl)phenyl)-1H-benz[d]imidazole-5(6)-carbonitrile] | 1.95 | two times more effective | same activity | – | 62.5 | 125 | 62.5 | – | – | – | – | – | – | 40 ± 8.71 | – |
| N#Cc1ccc2[nH]c(-c3ccc(-c4nnc(SCC(=O)c5ccc(Br)cc5)n4-c4ccccc4)cc3)nc2c1 [6f, 2-(4-(5-((2-(4-Bromophenyl)-2-oxoethyl)thio)-4-phenyl-4H-1,2,4-triazol-3-yl)phenyl)-1H-benz[d]imidazole-5(6)-carbonitrile] | 1.95 | two times more effective | same activity | 27.6 ± 1.02 | 62.5 | 125 | 62.5 | – | – | – | – | – | – | – | – |
| N#Cc1ccc2[nH]c(-c3ccc(-c4nnc(SCC(=O)c5ccc(Cl)c(Cl)c5)n4-c4ccccc4)cc3)nc2c1 [6g, 2-(4-(5-((2-(3,4-Dichlorophenyl)-2-oxoethyl)thio)-4-phenyl-4H-1,2,4-triazol-3-yl)phenyl)-1H-benz[d]imidazole-5(6)-carbonitrile] | 1.95 | two times more effective | same activity | 34.6 ± 3.51 | 31.25 | 250 | 125 | – | – | – | – | – | – | – | – |
| N#Cc1ccc2[nH]c(-c3ccc(-c4nnc(SCC(=O)c5ccc(F)cc5F)n4-c4ccccc4)cc3)nc2c1 [6h, 2-(4-(5-((2-(2,4-Difluorophenyl)-2-oxoethyl)thio)-4-phenyl-4H-1,2,4-triazol-3-yl)phenyl)-1H-benz[d]imidazole-5(6)-carbonitrile] | 1.95 | two times more effective | same activity | 28.1 ± 1.48 | 62.5 | 62.5 | 62.5 | – | – | – | – | – | – | – | – |
| N#Cc1ccc2nc(-c3ccc(-c4nnc(SCC(=O)c5ccc(Cl)cc5)n4-c4ccccc4)cc3)[nH]c2c1 [6i, 2-(4-(5-((2-(4-Chlorophenyl)-2-oxoethyl)thio)-4-phenyl-4H-1,2,4-triazol-3-yl)phenyl)-1H-benz[d]imidazole-5(6)-carbonitrile] | – | four times more effective | two times more effective | – | – | – | – | 0.97 (≈ 1.77 µM) | 53.6 ± 2.82 | 31.2 (≈ 57.1 µM) | 125 (≈ 229 µM) | 62.5 (≈ 114 µM) | 197.9 | – | > 100 |
| N#Cc1ccc2nc(-c3ccc(-c4nnc(SCC(=O)c5ccc(Cl)cc5Cl)n4-c4ccccc4)cc3)[nH]c2c1 [6j, 2-(4-(5-((2-(2,4-Dichlorophenyl)-2-oxoethyl)thio)-4-phenyl-4H-1,2,4-triazol-3-yl)phenyl)-1H-benz[d]imidazole-5(6)-carbonitrile] | – | four times more effective | two times more effective | – | – | – | – | 0.97 (≈ 1.67 µM) | 32.5 ± 1.34 | 31.2 (≈ 53.7 µM) | 125 (≈ 215 µM) | 62.5 (≈ 107 µM) | 206.5 | – | – |
| N#Cc1ccc2[nH]c(-c3ccc(-c4nnc(SCC(=O)c5cccc([N+](=O)[O-])c5)n4-c4ccccc4)cc3)nc2c1 [6k, 2-(4-(5-((2-(3-Nitrophenyl)-2-oxoethyl)thio)-4-phenyl-4H-1,2,4-triazol-3-yl)phenyl)-1H-benz[d]imidazole-5(6)-carbonitrile] | 1.95 | two times more effective | same activity | 30.3 ± 0.41 | 31.25 | 125 | 31.25 | – | – | – | – | – | – | – | – |
| N#Cc1ccc2[nH]c(-c3ccc(-c4nnc(SCC(=O)c5ccccc5)n4-c4ccccc4)cc3)nc2c1 [6l, 2-(4-(5-((2-Oxo-2-phenylethyl)thio)-4-phenyl-4H-1,2,4-triazol-3-yl)phenyl)-1H-benz[d]imidazole-5(6)-carbonitrile] | 1.95 | two times more effective | same activity | 37.6 ± 3.55 | 31.25 | 125 | 31.25 | – | – | – | – | – | – | – | – |
| OC(Cn1cncn1)(Cn1cncn1)c1ccc(F)cc1F [fluconazole, reference compound] | – | – | – | – | – | – | – | 3.9 (≈ 12.7 µM) | – | 3.9 (≈ 12.7 µM) | 7.81 (≈ 25.5 µM) | 7.81 (≈ 25.5 µM) | – | – | – |
| C[C@@H](c1ncncc1F)[C@](O)(Cn1cncn1)c1ccc(F)cc1F [voriconazole, reference compound] | – | – | – | – | – | – | – | 1.95 (≈ 5.58 µM) | – | 3.9 (≈ 11.2 µM) | 3.9 (≈ 11.2 µM) | 3.9 (≈ 11.2 µM) | – | – | – |
